PMC4865847, “Putative histidine kinase inhibitors with antibacterial effect against multi-drug resistant clinical isolates identified by in vitro and in silico screens” (Scientific Reports, 2016)
pIC50: −log10 of the molar value. In brackets after ≈: the same amount, converted by molar mass. Where two headings read alike, the source gives them in different places.

Tests used:
S. pneumoniae WalK = biological target: T1, S. pneumoniae WalK (Streptococcus pneumoniae, UniProt Q8DPL8); assay: In vitro autophosphorylation kinase assay with γ-32P-ATP, WalK; format: biochemical; conditions: autophosphorylation, one time point (30 sec), 10% DMSO
T1 construct: WalK (amino acids from 208 to 449); N-terminal His6-3C site of vector pOPINF (own knowledge of the vector); made in house; host or cells: E. coli RIL
Method: (§1) To evaluate the inhibitory capacity of selected hits from DSF, SBVS and LBSS in vitro autophosphorylation kinase assays with γ-^32P-ATP were performed as previously described. Ligands were dissolved in 100% DMSO. […] Controls lacking ligands contained an equal concentration of DMSO. Inhibition of autophosphorylation was determined by incubating 0.12 mg/ml (≈4 μM) HK and up to 20 mM fragment in kinase buffer (50 mM Tris HCl, pH 8.5, 50 mM KCl, 5 mM MgCl2, 0.5 mM EDTA and 0.1 mM DTT). Autophosporylation reactions were initiated by addition of 0.1 μCi/μl γ-^32P-ATP containing from 0.03 to 0.06 μM ATP (final concentrations). Autophosphorylation was quenched with 2xSDS-PAGE sample buffer supplemented with 50 mM EDTA. […] After electrophoresis, the bottoms of the gels were removed to lower the background from the unincorporated radiolabeled ATP. Gels were dried without staining on a Bio-Rad Gel Air drying system and the phosphorylated protein was quantified by phosphor-imaging. Prism GraphPad was used for curve fitting and statistical analysis.

Staphylococcus aureus = assay: Antibacterial susceptibility testing (MIC/MBC), S. aureus; format: cell-based; conditions: Staphylococcus aureus; for MBC: DSM20231, read-out: MBC S. aureus DSM 20231
Method: (§2) Minimal inhibitory concentrations (MICs) were determined following a standard double-dilution method. […] For S. pneumoniae MICs were determined by adapting the standard double-dilution method to anaerobic conditions and of this microorganism (use of Todd Hewitt Yeast extract with 200 U/mL of catalase and continuous monitoring of growth).

E. coli PhoR (PhoR^E) = biological target: T2, E. coli PhoR (PhoR^E) (Escherichia coli, UniProt P08400); assay: In vitro autophosphorylation kinase assay with γ-32P-ATP, PhoR^E; format: biochemical; conditions: for pIC50: autophosphorylation, one time point (30 sec), 10% DMSO
T2 construct: The catalytic portion (DHp and CA domain) of E. coli PhoR (PhoR^E); made in house; host or cells: E. coli RIL
Method: as §1

Escherichia coli = assay: Antibacterial susceptibility testing (MIC/MBC), E. coli; format: cell-based; conditions: Escherichia coli; for MBC: read-out: MBC E. coli CFT 073; for MIC: read-out: MIC E. coli CFT 073
Method: as §2

[1] = tested on: Staphylococcus epidermidis; assay: Antibacterial susceptibility testing (MIC/MBC), S. epidermidis; format: cell-based; conditions: Staphylococcus epidermidis
Method: as §2

S. aureus PhoR (PhoR^S) = S. aureus PhoR (PhoR^S) (Staphylococcus aureus, UniProt Q2FXN7); assay: In vitro autophosphorylation kinase assay with γ-32P-ATP, PhoR^S; format: biochemical; conditions: for pIC50: autophosphorylation, one time point (30 sec), 10% DMSO
Method: To evaluate the inhibitory capacity of selected hits from DSF, SBVS and LBSS in vitro autophosphorylation kinase assays with γ-^32P-ATP were performed as previously described. Ligands were dissolved in 100% DMSO. […] Controls lacking ligands contained an equal concentration of DMSO. Inhibition of autophosphorylation was determined by incubating 0.12 mg/ml (≈4 μM) HK and up to 20 mM fragment in kinase buffer (50 mM Tris HCl, pH 8.5, 50 mM KCl, 5 mM MgCl2, 0.5 mM EDTA and 0.1 mM DTT). Autophosporylation reactions were initiated by addition of 0.1 μCi/μl γ-^32P-ATP containing from 0.03 to 0.06 μM ATP (final concentrations). Autophosphorylation was quenched with 2xSDS-PAGE sample buffer supplemented with 50 mM EDTA. Samples were applied without heating to 15% (w/v) Tris-glycine SDS-polyacrylamide gels. After electrophoresis, the bottoms of the gels were removed to lower the background from the unincorporated radiolabeled ATP. Gels were dried without staining on a Bio-Rad Gel Air drying system and the phosphorylated protein was quantified by phosphor-imaging. Prism GraphPad was used for curve fitting and statistical analysis.

[2] = DSM20231, read-out: MIC S. aureus DSM 20231
[3] = DSM20044, read-out: MIC S. epidermidis DSM 20044
[4] = DSM20231, strain DSM 20231, read-out: MIC S. aureus DSM 20231
[5] = DSM20044, strain DSM 20044, read-out: MIC S. epidermidis DSM 20044

T2 sequence (P08400 210-425): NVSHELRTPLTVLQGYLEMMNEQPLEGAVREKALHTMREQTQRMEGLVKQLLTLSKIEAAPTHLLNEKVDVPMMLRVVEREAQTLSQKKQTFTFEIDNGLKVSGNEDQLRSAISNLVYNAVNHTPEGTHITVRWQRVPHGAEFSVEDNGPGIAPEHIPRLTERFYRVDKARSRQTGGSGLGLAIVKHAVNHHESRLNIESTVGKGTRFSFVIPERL
Chain of S. aureus PhoR (PhoR^S) (Q2FXN7 entry or part of it): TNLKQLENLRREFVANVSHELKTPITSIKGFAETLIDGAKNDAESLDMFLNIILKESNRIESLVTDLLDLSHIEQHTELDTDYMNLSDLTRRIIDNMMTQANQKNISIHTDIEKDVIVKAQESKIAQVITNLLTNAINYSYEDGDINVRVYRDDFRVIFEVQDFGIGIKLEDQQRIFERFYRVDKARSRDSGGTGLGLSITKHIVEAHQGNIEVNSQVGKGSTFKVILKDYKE
T1 sequence (Q8DPL8 208-449): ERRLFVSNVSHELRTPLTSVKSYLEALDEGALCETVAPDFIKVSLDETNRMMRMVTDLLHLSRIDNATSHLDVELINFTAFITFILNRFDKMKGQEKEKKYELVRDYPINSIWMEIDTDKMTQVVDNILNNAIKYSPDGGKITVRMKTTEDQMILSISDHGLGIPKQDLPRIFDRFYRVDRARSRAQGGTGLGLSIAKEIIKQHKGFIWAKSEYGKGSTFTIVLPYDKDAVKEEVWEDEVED

Compound	MIC (Staphylococcus aureus; [4]) [µg/mL]	pIC50 (S. aureus PhoR (PhoR^S); IC50 PhoR^S)	pIC50 (E. coli PhoR (PhoR^E); IC50 PhoR^E)	MIC (Escherichia coli; strain CFT 073) [µg/mL]	MIC [1, 5] [µg/mL]	further results
Cn1c2ccccc2c2ccccc21 [F2.6]						pIC50 (S. pneumoniae WalK; read-out: IC50 WalK): < 2.70; MIC (Staphylococcus aureus; [2]): > 500 µg/mL; pIC50 (E. coli PhoR (PhoR^E); read-out: IC50 PhoR^E): < 2.70; MBC (Escherichia coli): 500 µg/mL (≈ 2760 µM); MIC (Escherichia coli): > 500 µg/mL; MIC [1, 3]: > 500 µg/mL
CC(=O)Nc1ccc2c(c1)C(=Nc1ccc(F)cc1)c1ccccc1-2 [S1.10]	> 500	< 2.70	< 2.70	> 500	> 500	
Nc1ncc(-c2ccc(Br)cc2)s1 [F1.4]	> 500		< 2.70	> 500	> 500	pIC50 (S. pneumoniae WalK; IC50 WalK): < 2.70
CC(=O)Nc1cccc(S(=O)(=O)c2cccc(NC(C)=O)c2)c1 [S1.9]	> 500	< 2.70	< 2.70	> 500	> 500	
CC(C)(C)c1ccc(NS(=O)(=O)c2ccc(N)cc2)cc1 [S1.15]	> 500		< 2.70	> 500	> 500	pIC50 (S. aureus PhoR (PhoR^S); read-out: IC50 PhoR^S): > 2.70; inhibition at 2000 µM (S. aureus PhoR (PhoR^S); read-out: inhibition of PhoR^S autophosphorylation): > 75%; inhibition at 2000 µM (E. coli PhoR (PhoR^E); 2 mM, 30 sec, compared to negative control): > 40%
CC(=O)Nc1cccc(Cc2cccc(NC(C)=O)c2)c1 [S1.4]	> 500	< 2.70	< 2.70	> 500	> 500	
CC(=O)Nc1ccc(C(=O)C(O)c2ccc(NC(C)=O)cc2)cc1 (stereo not shown) [S1.12]	> 500	< 2.70	< 2.70	> 500	> 500	
O=C(NCc1cccc(Cl)c1)Nc1ccccc1 [S1.22]	> 500	< 2.70	< 2.70	> 500	> 500	
c1ccc2[nH]ccc2c1 [F2.7]						pIC50 (S. pneumoniae WalK; read-out: IC50 WalK): < 2.70; MBC (Staphylococcus aureus): > 500 µg/mL; MIC (Staphylococcus aureus; [2]): 500 µg/mL (≈ 4270 µM); pIC50 (E. coli PhoR (PhoR^E); read-out: IC50 PhoR^E): < 2.70; MIC (Escherichia coli): 500 µg/mL (≈ 4270 µM); MIC [1, 3]: > 500 µg/mL
CC(=O)Nc1ccc(C(O)c2ccc(NC(C)=O)cc2)cc1 [S1.6]	> 500	< 2.70	< 2.70	> 500	> 500	
CCN(Cc1ccc(C(=O)OC)cc1)c1cccc(NC(C)=O)c1 [S1.1]	> 500	< 2.70	< 2.70	> 500	> 500	
Nc1nc(-c2ccc(O)cc2)cs1 [F1.1]						pIC50 (S. pneumoniae WalK; read-out: IC50 WalK): < 2.70; MBC (Staphylococcus aureus): > 500 µg/mL; pIC50 (E. coli PhoR (PhoR^E); read-out: IC50 PhoR^E): < 2.70; MBC (Escherichia coli): > 500 µg/mL
CCC(c1cccc(Br)c1)C(C(C)=O)c1ccc(OC)cc1 (stereo not shown) [S1.23]	> 500	< 2.70	< 2.70	> 500	> 500	
CCn1c2ccccc2c2cc(NC(C)=O)ccc21 [S1.24]	> 500	< 2.70	< 2.70	> 500	> 500	
CC(=O)c1cccc(NC(=O)N(C)Cc2ccccc2)c1 [S1.25]	> 500	< 2.70	< 2.70	> 500	> 500	
CC(=O)NC(Cc1ccccc1)C(=O)Nc1cccc(C)c1 (stereo not shown) [S1.19]	> 500	< 2.70	< 2.70	> 500	> 500	
CC(=O)Nc1ccc2c(c1)Cc1cc(Br)ccc1-2 [S1.20]		< 2.70				MIC (Staphylococcus aureus; [2]): > 500 µg/mL; pIC50 (E. coli PhoR (PhoR^E); read-out: IC50 PhoR^E): < 2.70; MIC (Escherichia coli): > 500 µg/mL; MIC [1, 3]: > 500 µg/mL
